# According to EP0033503A2, “Medicaments with cytostatic activity and use of cyclic compounds, in which the heterocyclic N-ring atoms are substituted by several glycidyl groups, in pharmaceutical compositions” (Henkel Kommanditgesellschaft auf Aktien, priority 1980, dated 1981):
# Like-named read-outs stand apart in the source and are kept apart here.
# Tested on: Tumorart P 388 (Leukämie)
# Assay: Survival of mice bearing P 388 leukemia (NCI protocol 1200), T/C
# Type: in vivo, Maus
# Conditions: for response vs control in vivo at 200 mg/kg: P388, 200 mg/kg per single dose
# Source text: Die nachfolgenden Versuche wurden durchgeführt nach Testvorschriften des National Cancer Institute Bethesda, Maryland 200014, veröffentlicht in Cancer Chemotherapy Reports" Part. 3, September 1972, Vol. 3, Nr. 2. Als Wirksubstanz wurde 1,3-Diglycidyl-benzimidazolon des i vorstehenden Beispiels 1 verwendet. Die Substanz wurde als wäßrige, 1%ige Injektionslösung unmittelbar vor der Applikation frisch hergestellt.
# Bei Mäusen wurde gemäß Protokoll 1200 (Seite 91, c.) die Tumorart P 388 (Leukämie) i.p. mit 10^6 Zellen/Maus gesetzt. Die unbehandelten Tiere hatten eine mittlere überlebensdauer von 9,9 Tagen.
# Es wird der Wirkstoff appliziert. Der Wirkstoff wird dabei in 9.Gaben in unterschiedlichen Versuchsreihen einmal zu je 200 mg/kg und in einer anderen zu 100 mg/kg und in einer dritten Versuchsreihe zu je 50 mg/kg verabreicht. In beiden Fällen wird eine signifikante Verlängerung der Lebensdauer der behandelten Testtiere gegenüber der Kontrollgruppe der nicht behandelten Tiere erzielt. […] Bei der Testgruppe mit der Dosis von 100 mg/kg beträgt die durchschnittliche Lebenserwartung der Versuchstiere 18 Tage, T/C 181 %. Die Gruppe mit der Dosis 50 mg/kg hatte eine durchschnittliche Lebenserwartung von 15,3 Tagen, T/C 154 %. […]
compound,measurement,setting,value
CC1(C)C(=O)N(CC2CO2)C(=O)N1CN1C(=O)N(CC2CO2)C(=O)C1(C)C (centres unmarked) [[drawing] r20],response vs control in vivo at 200 mg/kg,"Mus musculus, 9 doses, first test series, read-out: Verlängerungsrate T/C (Testergebnis in % T/C)",153%
O=c1ccn(CC2CO2)c(=O)n1Cn1c(=O)ccn(CC2CO2)c1=O (centres unmarked) [[drawing] the 18th table r17],response vs control in vivo at 50 mg/kg,"Mus musculus, P388, 50 mg/kg per single dose, first series, unit inferred, read-out: Testergebnis T/C (T/C-Wert)",115%
same,response vs control in vivo at 100 mg/kg,"Mus musculus, P388, 100 mg/kg per single dose, first series, unit inferred, read-out: Testergebnis T/C (T/C-Wert)",139%
same,response vs control in vivo at 200 mg/kg,"Mus musculus, first series, unit inferred, read-out: Testergebnis T/C (T/C-Wert)",186%
Diglycidyl-butylglykoluril [Beispiel 4],durchschnittliche Lebenserwartung der Versuchstiere,"50 mg/kg per single dose, 9 doses","16,3 Tage"
same,Verlängerungsrate T/C (Testergebnis in % T/C),"50 mg/kg per single dose, 9 doses, first test series",164%
same,durchschnittliche Lebenserwartung der Versuchstiere,"100 mg/kg per single dose, 9 doses","19,3 Tage"
same,Verlängerungsrate T/C (Testergebnis in % T/C),"100 mg/kg per single dose, 9 doses, first test series",194%
same,durchschnittliche Lebensdauer der Testgruppe,"200 mg/kg per single dose, 9 doses",27 Tage
same,Verlängerungsrate T/C (Testergebnis in % T/C),"200 mg/kg per single dose, 9 doses, first test series",272%
same,"Versuchstiere, die die Testdauer von 30 Tagen überleben","200 mg/kg per single dose, test group of 6 female mice",ein Versuchstier
